Target: T1, Ba/F3 cell EGFR Exon20 ins NPH (Homo sapiens, UniProt P00533, INS773NPH)
T1 construct: expressed in transfected cells; host or cells: Ba/F3
Assay: Ba/F3 cell proliferation suppression, EGFR Exon20 ins NPH
Type: cell-based
Settings: GI50 class; Ba/F3 cell line with NPH inserted at Exon20 of EGFR; 72 hours
How it was run: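 Cells (3000–5000/well) plated 24 h before compound, 12-point 3-fold dilutions at 0.3 nM to 50 um final; Ba/F3 lines grown with 5 ng/ml IL-3. Viability by CellTiter-Glo luminescence after 72 h, growth ratio vs control, GI50 from curves; triplicate.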

| SMILES | Ba/F3 (NPH) Activity |
| --- | --- |
| C=CC(=O)Nc1cc(Nc2cc(N3OCC[C@@H]3c3ccc(F)c(Cl)c3F)ncn2)c(OC)cc1N1CCO[C@@H](C)C1 [compound 657, N-(5-((6-((R)-3-(3-chloro-2,4-difluorophenyl)isoxazolidine-2-yl)pyrimidine-4-yl)amino)-4-methoxy-2-((S)-2-methylmorpholino)phenyl)acrylamide] | A (GI50 < 50 nM) |
| C=CC(=O)Nc1cc(Nc2cc(N3OCC[C@H]3c3c(F)cccc3F)ncn2)c(OC)cc1N1CCC(N(C)C)CC1 [compound 308, N-(5-((6-((S)-3-(2,6-difluorophenyl)isoxazolidine-2-yl)pyrimidine-4-yl)amino)-2-(4-(dimethylamino)piperidine-1-yl)-4-methoxyphenyl) acrylamide] | C (500 nM ≤ GI50 < 5000 nM) |
| C=CC(=O)Nc1cc(Nc2cc(N3OCC[C@@H]3c3cccc(Cl)c3F)ncn2)c(OC)cc1N1CCC(N2CCN(C(C)C)CC2)CC1 [compound 707, N-(5-((6-((R)-3-(3-chloro-2-fluorophenyl)isoxazolidine-2-yl)pyrimidine-4-yl)amino)-2-(4-(4-isopropylpiperazine-1-yl)piperidine-1-yl)-4-methoxyphenyl) acrylamide] | A (GI50 < 50 nM) |
| C=CC(=O)Nc1cc(Nc2cc(N3OCC[C@@H]3c3cc(F)cc(Cl)c3)ncn2)c(OC)cc1N1CCC(N2CCN(C3CC3)[C@H](C)C2)CC1 [Example 158, N-(5-((6-((R)-3-(3-chloro-5-fluorophenyl)isoxazolidine-2-yl)pyrimidine-4-yl)amino)-2-(4-((R)-4-cyclopropyl-3-methylpiperazine-1-yl)piperidine-1-yl)-4-methoxyphenyl) acrylamide] | A (GI50 < 50 nM) |
| C=CC(=O)Nc1cc(Nc2cc(N3OCC[C@@H]3c3cccc(F)c3Cl)ncn2)c(OC)cc1N1CCC(N2CC3CCC(C2)N3C2CC2)CC1 [Example 142, N-(5-((6-((R)-3-(2-chloro-3-fluorophenyl)isoxazolidine-2-yl)pyrimidine-4-yl)amino)-2-(4-(8-cyclopropyl-3,8-diazabicyclo[3.2.1]octan-3-yl)piperidine-1-yl)-4-methoxyphenyl) acrylamide] | A (GI50 < 50 nM) |
| C=CC(=O)Nc1cc(Nc2cc(N3OCC[C@@H]3c3ccc(F)c(F)c3)ncn2)c(OC)cc1N1CCC(N2CCN(C(C)C)CC2)CC1 [compound 501, N-(5-((6-((R)-3-(3,4-difluorophenyl)isoxazolidine-2-yl)pyrimidine-4-yl)amino)-2-(4-(4-isopropylpiperazine-1-yl)piperidine-1-yl)-4-methoxyphenyl) acrylamide] | A (GI50 < 50 nM) |
| C=CC(=O)Nc1cc(Nc2cc(N3OCC[C@@H]3c3ccccc3)ncn2)c(OC)cc1N1CCC(N2CC3CC2CN3C)CC1 (stereo partly drawn) [Example 52, N-(4-methoxy-2-(4-(5-methyl-2,5-diazabicyclo [2.2.1]heptane-2-yl)piperidine-1-yl)-5-((6-((R)-3-phenylisoxazolidine-2-yl)pyrimidine-1-yl)amino)phenyl) acrylamide] | A (GI50 < 50 nM) |
| C=CC(=O)Nc1cc(Nc2cc(N3OCC[C@H]3Cc3cccnc3)ncn2)c(OC)cc1N1CCC(N2C[C@H]3C[C@@H]2CO3)CC1 [compound 990, N-(2-(4-((1R,4R)-2-oxa-5-azabicyclo [2.2.1]heptane-5-yl)piperidine-1-yl)-4-methoxy-5-((6-((R)-3-(pyridine-3-ylmethyl)isoxazolidine-2-yl)pyrimidine-4-yl)amino)phenyl)acrylamide] | B (50 nM ≤ GI50 < 500 nM) |
| C=CC(=O)Nc1cc(Nc2cc(N3OCC[C@@H]3c3ccc(Cl)cc3F)ncn2)c(OC)cc1N1CCC(N2C[C@@H]3C[C@H]2CO3)CC1 [compound 373, N-(2-(4-((1S,4S)-2-oxa-5-azabicyclo[2.2.1]heptane-5-yl)piperidine-1-yl)-5-((6-((R)-3-(4-chloro-2-fluorophenyl)isoxazolidine-2-yl)pyrimidine-4-yl)amino)-4-methoxyphenyl) acrylamide] | A (GI50 < 50 nM) |
| C=CC(=O)Nc1cc(Nc2cc(N3OCC[C@@H]3c3ccc(Cl)cc3F)ncn2)c(OC)cc1N1CCC(N2CCN(C)CC2)CC1 [compound 454, N-(5-((6-((R)-3-(4-chloro-2-fluorophenyl)isoxazolidine-2-yl)pyrimidine-4-yl)amino)-4-methoxy-2-(4-(4-methylpiperazine-1-yl)piperidine-1-yl)phenyl) acrylamide] | A (GI50 < 50 nM) |
| C=CC(=O)Nc1cc(Nc2cc(N3OCC[C@@H]3c3cccc4ccccc34)ncn2)c(OC)cc1N1CCC(N2CCN(C3CC3)[C@H](C)C2)CC1 [Example 155, N-(2-(4-((R)-4-cyclopropyl-3-methylpiperazine-1-yl)piperidine-1-yl)-4-methoxy-5-((6-((R)-3-(naphthalene-1-yl)isoxazolidine-2-yl)pyrimidine-4-yl)amino)phenyl)acrylamide] | A (GI50 < 50 nM) |
| C=CC(=O)Nc1cc(Nc2cc(N3OCC[C@@H]3c3ccc(Cl)cc3)ncn2)c(OC)cc1N1CCC(N2C[C@H]3C[C@@H]2CO3)CC1 [compound 867, N-(2-(4-((1R,4R)-2-oxa-5-azabicyclo [2.2.1]heptane-5-yl)piperidine-1-yl)-5-((6-((R)-3-(4-chlorophenyl)isoxazolidine-2-yl)pyrimidine-4-yl)amino)-4-methoxyphenyl) acrylamide] | A (GI50 < 50 nM) |
| C=CC(=O)Nc1cc(Nc2cc(N3OCC[C@@H]3c3ccc(F)cc3F)ncn2)c(OC)cc1N1CCN(CC)CC1 [compound 351, N-(5-((6-((R)-3-(2,4-difluorophenyl)isoxazolidine-2-yl)pyrimidine-4-yl)amino)-2-(4-ethylpiperazine-1-yl)-4-methoxyphenyl) acrylamide] | A (GI50 < 50 nM) |
| C#Cc1cccc([C@H]2CCON2c2cc(Nc3cc(NC(=O)C=C)c(N4CCC(N5CCN(C6CC6)CC5)CC4)cc3OC)ncn2)c1 [Example 165, N-(2-(4-(4-cyclopropylpiperazine-1-yl)piperidine-1-yl)-5-((6-((R)-3-(3-ethynylphenyl)isoxazolidine-2-yl)pyrimidine-4-yl)amino)-4-methoxyphenyl) acrylamide] | A (GI50 < 50 nM) |
| C=CC(=O)Nc1cc(Nc2cc(N3OCC[C@@H]3c3cc(F)ccc3F)ncn2)c(OC)cc1N1CCC(N2C[C@@H](C)N(C3CC3)C[C@@H]2C)CC1 [Example 174, N-(2-(4-((2S,5R)-4-cyclopropyl-2,5-dimethylpiperazine-1-yl)piperidine-1-yl)-5-((6-((R)-3-(2,5-difluorophenyl)isoxazolidine-2-yl)pyrimidine-4-yl)amino)-4-methoxyphenyl) acrylamide] | A (GI50 < 50 nM) |
| C=CC(=O)Nc1cc(Nc2cc(N3OCC[C@@H]3c3cccc(OC)c3)ncn2)c(OC)cc1N1CCC(N2CCN(C3COC3)CC2)CC1 [Example 81, N-(4-methoxy-5-((6-((R)-3-(3-methoxyphenyl)isoxazolidine-2-yl)pyrimidine-4-yl)amino)-2-(4-(4-(oxetane-3-yl)piperazine-1-yl)piperidine-yl)phenyl) acrylamide] | B (50 nM ≤ GI50 < 500 nM) |

Reference: patent publication US12157730B2, “Heteroaryl derivative, method for producing same, and pharmaceutical composition comprising same as effective component” (VORONOI INC., priority 2019, dated 2024)
